In US20030007998A1, “Unsaturated lipid-enriched feedstock for ruminants” (priority 2001, published 2003):

Experiments:
Holstein cows [1] = experiment: Dairy cattle feeding trial, dietary monensin in linseed oil diets; type: in vivo
Description: (§1) Eight Holstein cows are selected and equipped with rumen and duodenal cannulae. All cows are housed in individual tie stalls and are commencing the trial at 45 days in lactation.
(§2) The eight cows are employed in two four-by-four Latin Square designs. Each square has four cows with four treatments imposed. The four treatments are 0, 10, 40 and 70 mg/kg DM of dietary monensin. Each square has a different source of dietary fatty acids. In the first square, dietary fat is supplied by linseed oil, which has a high proportion of fatty acid linolenate. The second square has the dietary fat supplied by MEGALAC, which is a calcium salt of palm oil fatty acids having a high proportion of fatty acid oleate.
(§3) Cows are fed identical diets in both squares except for source of fatty acids, and are formulated for high production. Nutrient composition is formulated for all diets at 17% crude protein with 65% as rumen undegradable protein, 26% Neutral Detergent Fiber, 1.7 Mcal/kg net energy. All diets contain 4% added fat on a dry matter basis from MEGALAC or linseed oil. A daily dry matter intake of 25 kg/cow is calculated to deliver approximately 1 kg of linseed oil or MEGALAC per cow per day. Remaining dietary ingredients are low in fat, and include alfalfa haylage, corn silage, corn, barley, soybean meal, blood meal, Smartamine-M (rumen bypass methionine), sodium bicarbonate and vitamin-mineral premix. All diets are offered as Total Mixed Rations twice daily in quantities to assure at least 10% refusal per day of the amount offered.
(§4) Cows are fed their assigned diets for two weeks, with week one as an adaptation and week two as the experimental feeding period. Sampling is on the last 3 days of this second week. All cows are then moved onto a different diet in such a manner that by the end of the trial all cows have received all diets within each Latin Square.
(§5) During the second week of each period daily, dry matter intake and milk production are recorded. Total mixed rations are sampled daily and composited weekly. These are analyzed for crude protein, NDF and total fat. During the last 3 days of the second week individual proportional milk samples are taken and separated into two subsamples. One subsample is used to assay for total fat content and true protein, and the second is frozen for subsequent analysis of fatty acid profile in the milk.
(§6) During the last 3 days of the second week, rate of passage from the rumen is estimated using dye marker techniques. The liquid and solids markers are placed into the rumen daily beginning on day 7 of the adaptation period, with duodonal samples taken on the last 3 days of the experimental period. Duodenal samples are stored frozen for later analysis of total fat, fatty acid profile and marker. Concurrent rumen samples are taken. Liquid turnover rate is estimated from the dilution of dye in the liquid portion of rumen samples. Rumen contents are assayed for total fat, fatty acid profile and marker. Each Latin square is analyzed separately.

Holstein cows [2] = experiment: Dairy cattle feeding trial, dietary monensin in MEGALAC diet; type: in vivo
Description: as §1, §2, §3, §4, §5, §6

Hereford steers [3] = experiment: Beef cattle feeding trial, dietary monensin in linseed oil diet; type: in vivo
Description: (§7) Eight Hereford steers are selected and equipped with rumen and duodenal cannulae. All steers are housed in individual tie stalls. The duration of the trial is the last 90 days of the finishing period.
as §2, with “steers” for “cows”, “used” for “employed”, “mg” for “mg/kg DM”
(§8) Steers are fed identical diets in both squares except for source of fatty acids, and the diets are formulated for high rate of body weight gain (1 kg/day). All diets are calculated to deliver 0.75 kg/steer/day of added dietary linseed oil or MEGALAC. Remaining dietary ingredients are low in fat, and include corn silage, corn, barley, soybean meal, bloodmeal, Smartamine-M (rumen bypass methionine), sodium bicarbonate and vitamin-mineral premix. All diets are offered as Total Mixed Rations twice daily in quantities to assure at least 10% refusal per day of the amount offered.
as §4, with “Steers” for “Cows”, “steers” for “cows”
(§9) During the second week of each period daily dry matter intakes are recorded. Total mixed rations are sampled daily and composited weekly. These are analyzed for crude protein, NDF and total fat. During the last 3 days of the second week individual body weights are recorded.
as §6, with “week” for “week,”, “duodenal” for “duodonal”

Hereford steers [4] = experiment: Beef cattle feeding trial, dietary monensin in MEGALAC diet; type: in vivo
Description: as §7
as §2, with “steers” for “cows”, “used” for “employed”, “mg” for “mg/kg DM”
as §8
as §4, with “Steers” for “Cows”, “steers” for “cows”
as §9
as §6, with “week” for “week,”, “duodenal” for “duodonal”

rumen fluid = details: in vitro, J. Dairy Sci., 78, 2797 (1995); cited from earlier work
[5] = 40 mg monensin, P<0.05, linseed oil diet
[6] = 70 mg monensin, P<0.05, linseed oil diet
[7] = 40 mg monensin, P<0.05, MEGALAC diet
[8] = 70 mg monensin, P<0.05, MEGALAC diet
[9] = 10 and 40 mg monensin, P<0.05, steers

## CC[C@@]1([C@@H]2O[C@@H]([C@H]3O[C@@](O)(CO)[C@H](C)C[C@@H]3C)C[C@@H]2C)CC[C@H]([C@]2(C)CC[C@]3(C[C@H](O)[C@@H](C)[C@@H]([C@@H](C)[C@@H](OC)[C@H](C)C(=O)O)O3)O2)O1 [monensin]
Holstein cows [1]; 0 to 70 mg monensin addition, linseed oil diet, dairy cows
  DMI: no effect
Holstein cows [1]; 10 mg monensin, P<0.05, linseed oil diet
  Milk linolenate increase vs. 0 mg supplementation: 25%
Holstein cows [1]; 10 mg monensin, P<0.1, linseed oil diet
  Rumen rate of passage: tends to increase
Holstein cows [1]; 10 mg monensin, tends (P<0.1), linseed oil diet
  Milk production improvement: 3 lbs. per day
Holstein cows [1]; [5]
  Milk linolenate increase vs. 0 mg supplementation: 28%
  Milk production improvement: 3.5 lb/day
Holstein cows [1]; 70 mg monensin vs 40 mg, linseed oil diet
  Milk production: no further improvement
Holstein cows [1]; [6]
  Milk fat percentage reduction: 0.3 percentage points
  Milk linolenate increase vs. 0 mg supplementation: 37%
Holstein cows [1]; 70 mg monensin, P<0.1, linseed oil diet
  Rumen liquid turnover rate increase: 5%
Holstein cows [1]; 70 mg monensin, linseed oil diet
  Bypass linolenic acid: about 30%
Holstein cows [1]; 10 and 40 mg monensin, P<0.05, linseed oil diet
  Increase of linolenic acid in duodenal contents: 20 percentage points
Holstein cows [1]; 10 and 40 mg monensin, linseed oil diet (0 mg: 8%)
  Estimated rumen bypass rate for linolenic acid: 28%
Holstein cows [1]; 40 and 70 mg monensin, linseed oil diet
  Rumen rate of passage increase: 6%
Holstein cows [1]; between 0, 10 and 40 mg monensin, linseed oil diet
  Rumen liquid turnover rate: not different
Holstein cows [1]; diets with different concentrations of monensin, linseed oil diet
  Milk protein percentages: not different
Holstein cows [1]; lower inclusion rates of monensin, linseed oil diet
  Milk fat percentage: only a tendency for a reduction
Holstein cows [2]; 0 to 70 mg monensin addition, MEGALAC diet, dairy cows
  DMI: no effect
Holstein cows [2]; 10 mg monensin, P<0.05, MEGALAC diet
  Milk oleate increase vs. 0 mg supplementation: 22%
Holstein cows [2]; 10 mg monensin, P<0.1, MEGALAC diet
  Rumen rate of passage: tends to increase
Holstein cows [2]; 10 mg monensin, tends (P<0.1), MEGALAC diet
  Milk production improvement: 2.8 lbs. per day
Holstein cows [2]; [7]
  Milk oleate increase vs. 0 mg supplementation: 31%
  Milk production improvement: 3.9 lb/day
Holstein cows [2]; 70 mg monensin vs 40 mg, MEGALAC diet
  Milk production: no further improvement
Holstein cows [2]; 70 mg monensin, MEGALAC diet
  Bypass linolenic acid: about 33%
Holstein cows [2]; [8]
  Milk fat percentage reduction: 0.25 percentage points
  Milk oleate increase vs. 0 mg supplementation: 39%
Holstein cows [2]; 70 mg monensin, P<0.1, MEGALAC diet
  Rumen liquid turnover rate increase: 6%
Holstein cows [2]; 10 and 40 mg monensin, MEGALAC diet (0 mg: 56%)
  Estimated rumen bypass rate for oleic acid: 74%
Holstein cows [2]; 10 and 40 mg monensin, P<0.05, MEGALAC diet
  Increase of oleic acid in duodenal contents: 18 percentage points
Holstein cows [2]; 40 and 70 mg monensin, MEGALAC diet
  Rumen rate of passage increase: 6.4%
Holstein cows [2]; between 0, 10 and 40 mg monensin, MEGALAC diet
  Rumen liquid turnover rate: not different
Holstein cows [2]; diets with different concentrations of monensin, MEGALAC diet
  Milk protein percentages: not different
Holstein cows [2]; lower inclusion rates of monensin, MEGALAC diet
  Milk fat percentage: only a tendency for a reduction
Hereford steers [3]; 10 mg monensin, P<0.1, steers
  Rumen rate of passage: tends to increase
Hereford steers [3]; 10 mg monensin, steers
  DMI: no significant effect
Hereford steers [3]; 70 mg monensin, P<0.1, steers
  Rumen liquid turnover rate increase: 5%
Hereford steers [3]; 70 mg monensin, steers
  Bypass linolenic acid: about 29%
Hereford steers [3]; [9]
  Increase of linolenic acid in duodenal contents: 24 percentage points
Hereford steers [3]; 10 and 40 mg monensin, steers (0 mg: about 10%)
  Rumen bypass rate for linolenic acid: 34%
Hereford steers [3]; 40 and 70 mg monensin diets, steers
  DMI reduction: 5%
Hereford steers [3]; 40 and 70 mg monensin, steers
  Rumen rate of passage increase: 6%
Hereford steers [3]; between 0, 40 and 70 mg monensin, steers
  Rumen liquid turnover rate: not different
Hereford steers [4]; 10 mg monensin addition, steers
  DMI: no effect
Hereford steers [4]; 10 mg monensin, P<0.1, steers
  Rumen rate of passage: tends to increase
Hereford steers [4]; 70 mg monensin, P<0.1, steers
  Rumen liquid turnover rate increase: 4%
Hereford steers [4]; 70 mg monensin, steers
  Bypass linolenic acid: about 39%
Hereford steers [4]; [9]
  Increase of oleic acid in duodenal contents: 22 percentage points
Hereford steers [4]; 10 and 40 mg monensin, steers (0 mg: 66%)
  Estimated rumen bypass rate for oleic acid: 88%
Hereford steers [4]; 40 and 70 mg monensin, steers
  DMI reduction compared to controls: 8%
  Rumen rate of passage increase: 5.4%
Hereford steers [4]; between 0, 10 and 40 mg monensin, steers
  Rumen liquid turnover rate: not different

## CC1(C)S[C@@H]2[C@H](NC(=O)[C@H](N)c3ccc(O)cc3)C(=O)N2[C@H]1C(=O)O [amoxicillin]
Rumen fluid
  Antimicrobial inhibition of lipolysis and lipid biohydrogenation of soybean oil: most potent inhibitors
